{"source": "patent US20240216343A1", "about": "“ENDOTHELIAL IK AND SK CHANNEL ACTIVATION TO TREAT PULMONARY HYPERTENSION” (UNIVERSITY OF VIRGINIA PATENT FOUNDATION, priority 2023, published 2024)", "key": {"[1]": {"tested_on": "IK/SK channels in SMCs from PAs", "test": "Whole-cell patch-clamp in freshly isolated SMCs from small PAs", "type": "cell-based, mouse", "details": "NS309 1 μmol/L", "experimental": "For SMC isolation (27), arterial segments were transferred to a 12×75 mm borosilicate glass culture tube containing 1 mL dissociation solution (145 mmol/L NaCl; 4 mmol/L KCl; 1 mmol/L MgCl2; 10 mmol/L HEPES; 0.05 mmol/L CaCl2), 10 mmol/L glucose; pH 7.3) and 0.5 mg/mL bovine serum albumin (BSA) and incubated for 10 minutes at room temperature (˜24° C.). The solution was then replaced with 1 mL dissociation solution containing 1 mg/mL papain (Sigma Aldrich) and 0.5 mg/mL dithiothreitol (Sigma Aldrich), and incubation was continued at 37° C. for 20 minutes. […]\nWhole-cell currents were measured at room temperature using conventional whole-cell patch-clamp electrophysiology. […] The pipette solution for conventional patch clamp consisted of 10 mmol/L HEPES, 123.2 mmol/L KCl, 10 mmol/L NaCl, 5.5 mmol/L MgCl2, 0.2 mmol/L CaCl2) and 5 mmol/L HEDTA (adjusted to pH 7.2 with 16.8 mm KOH) and contained 3 μm free-Ca^2+ and 1 mmol/L free-Mg^2+, as calculated using the Max-Chelator program (Chris Patton; Stanford University; Stanford; CA; USA). […] Data were acquired using a Multiclamp 700B amplifier connected to a Digidata 1550B system and analyzed using Clampfit 11.1 software (Molecular Devices, San Jose, CA, USA).\nNS309-induced ionic currents were measured in freshly isolated SMCs (FIG. 4A) from PAs in whole-cell patch-clamp experiments (FIGS. 4B and 4C)."}, "fourth-order PAs": {"tested_on": "fourth-order PAs", "test": "Pressure myography of mouse fourth-order PAs", "description": "Mouse fourth-order PAs (˜50 μm) were cannulated on glass micropipettes in a pressure myography chamber (The Instrumentation and Model Facility; University of Vermont; Burlington; VT; USA) and pressurized to a physiological pressure of 15 mm Hg (24). Briefly, freshly dissected lungs were placed in ice cold HEPES buffer in a dissection plate. The left lung was stretched and pinned down, with ventral side facing up. First, pulmonary veins, and then the airway were cut open to gain access to the pulmonary arteries underneath. Once PAs were visible, they were gently separated from surrounding tissue (25). Arteries were superfused with bicarbonate-physiological salt solution (PSS; 119 mmol/L NaCl; 4.7 mmol/L KCl; 1.2 mmol/L KH2PO4; 1.2 mmol/L MgCl2 hexahydrate; 2.5 mmol/L CaCl2) dihydrate; 7 mmol/L dextrose; and 24 mmol/L NaHCO3) at 37° ° C. and bubbled with 20% O2/5% CO2 to maintain the pH at 7.4. Approximately 20% PAs from normal mice develop myogenic tone, whereas ˜65% PA from Su+CH mice show myogenic tone at 15 mm Hg. Due to the relatively small percentage of PAs from normal mice showing myogenic tone, we pre-constricted all PAs with 30 nmol/L U46619 (a thromboxane A2 receptor agonist). […] U46619 was added to the chamber immediately, before the arteries could develop myogenic tone. Before measuring vascular reactivity, arteries were treated with NS309 (1 μmol/L), a direct activator of endothelial IK/SK channels, to assess endothelial health. […] Changes in arterial diameter were recorded at a 60-ms frame rate using a charge-coupled device camera and edge-detection software (IonOptix LLC; Westwood; MA; USA) (11, 26). At the end of each experiment, Ca^2+-free PSS (119 mmol/L NaCl; 4.7 mmol/L KCl; 1.2 mmol/L KH2PO4; 1.2 mmol/L MgCl2 hexahydrate; 7 mmol/L dextrose; 24 mmol/L NaHCO3; and 5 mmol/L EGTA) was applied to assess the maximum passive diameter. Percent constriction was calculated by:\n[formula] • where Diameterbefore is the diameter of the artery before treatment and Diameterafter is the diameter after treatment. Percent dilation was calculated by:\n[formula] • where Diameterbasal is the stable diameter before drug treatment, Diameterdilated is the diameter after drug treatment, and Diameterca-free is the maximum passive diameter."}, "IK channels": {"target": "IK channels (Homo sapiens, UniProt O15554+P0DP23)", "details": "reference (38); cited from earlier work"}, "[2]": {"details": "references (37, 38); cited from earlier work"}}, "note": "“Also recorded” adds a separate entry of the source.", "data": [{"compound": "O=C1Nc2c(ccc(Cl)c2Cl)C1=NO", "note": "[NS309, 6,7-dichloro-1H-indole-2,3-dione 3-oxime]", "values": [{"measurement": "Outward currents at 0 mV in SMCs, N vs Su+CH", "setting": "[1]", "value": "not different between SMCs from PAs of N and Su+CH mice"}, {"measurement": "Dilation of PAs that developed myogenic tone, N vs Su+CH", "setting": "fourth-order PAs; NS309 1 μmol/L", "value": "not different between N and Su+CH groups"}, {"measurement": "Dilation of small PAs, N vs Su+CH", "setting": "fourth-order PAs; NS309 0.3-1 μmol/L, PAs at 15 mm Hg pre-constricted with U46619 30 nmol/L", "value": "not different between N and Su+CH mice; also recorded: not different between PAs from control and CH+Su mice"}, {"measurement": "EC50", "setting": "IK channels", "value": "~0.02", "unit": "µM"}, {"measurement": "Half-life in vivo", "setting": "[2]", "value": "short half-life"}]}]}
